# Reference: patent US20220242843A1, “PROCESS FOR PREPARING A COUMARIN-CAGED FORSKOLIN DERIVATIVE, FORSKOLIN DERIVATIVE AND USE OF SAID FORSKOLIN DERIVATIVE” (Forschungszentrum Juelich GmbH, priority 2019, published 2022)
# Legend:
# [1] = Photolysis of JCF 1 in MeOH under 368.8 nm irradiation, followed by mass spectrometry; assay type: physicochemical; details: 100 μM in MeOH; 368.8 nm±5 nm; approximately 12.5 mW/cm^2
# Protocol: The photolysis of JCF 1 is carried out under controlled conditions in order to quantitatively detect the release of forskolin carbamate 10 as a function of the amount of light absorbed: 0.16 ml of a 100 μM solution of JCF 1 in MeOH is added to a quartz glass cuvette (width: 4 mm; depth (optical path): 10 mm->fill level 4 mm). The “Intensilight” light source (excitation lamp of a Nikon TI Eclipse fluorescence microscope) is used as the excitation source, the light of which is guided through a gel light guide (active diameter: 4 mm) and a narrowband bandpass filter (368.8 nm±5 nm) onto the liquid column in the cuvette. […]
# The irradiated samples are then examined using mass spectrometry (mass spectrometer: MSQ Plus from ThermoScientific; ionization: ESI-interface with a cone voltage of 50 V, eluent: methanol, water, glacial acetic acid, /50, 50, 0.02/vol, vol, vol; flow rate 0.2 ml/min; direct injections of 20 μl of the respective irradiated samples via a Rheodyne injection valve (7725i)). The mass trace m/z 511 and the mass range m/z 807-811 are recorded. The integrals of the peaks of the chromatogram of the mass trace m/z 511 (see FIG. 10) are evaluated. With an exposure time of 320 seconds, no more signals can be detected in the mass range m/z 807-811 (starting compound), and therefore a complete conversion can be assumed after this time under the above-described conditions.
# [2] = system: peripheral membrane adenylyl cyclases; test: Validation on eukaryotic cell line expressing CNG channel and GCaMP3.0: Ca2+-dependent fluorescence as readout of intracellular cAMP increase after UV exposure; assay type: cell-based; details: 100 μM IBMX
# From the text: The substance JCF 1 described according to embodiments of the invention was validated on eukaryotic cell cultures in which the increase in the intracellular cAMP concentration, which results from the binding of the biologically active forskolin carbamate 10 (FIG. 9) to peripheral membrane adenylyl cyclases which are endogenously present in the cells, using a fluorescence-based sensitive detection process.^14 In this regard, a cell line was used in which a cyclic-nucleotide-gated (CNG) ion channel is constitutively expressed. These channels are typically expressed in olfactory sensory neurons of the olfactory epithelium and open when the intracellular cAMP concentration increases. […] The inflow of Ca^2+ can be detected with Ca^2+-sensitive dyes or genetically encoded Ca^2+ indicators, such as GCaMP sensors, in a fluorescence reader or with a fluorescence microscope. […] The Ca^2+-dependent change in the fluorescence change can be detected and quantified with the aforementioned processes.
# Cells of the cell line described were seeded in 96-well multi-well plates (MWP) and increased to a density of approximately 25,000. […] The basal fluorescence in the wells of 96-well MWP was then measured with a fluorescence reader. […] The basal fluorescence in the wells was then measured again before the entire 96-well MWP plate was exposed to light using a UV lamp device (FIG. 11, FIG. 12). […]
smiles,measurement,setting,value
"C=C[C@@]1(C)CC(=O)[C@]2(O)[C@@]3(C)[C@@H](O)CCC(C)(C)[C@@H]3[C@H](OC(=O)NCCN(C)C(=O)OCc3cc(=O)oc4cc(O)c(Br)cc34)[C@H](OC(C)=O)[C@@]2(C)O1 [JCF 1, (3R,4aR,5S,6S,6aS,10S,10aR,10bS)-6-(((2-((((6-bromo-7-hydroxy-2-oxo-2H-chromen-4-yl)methoxy)carbonyl)(methyl)amino)ethyl)carbamoyl)oxy)-10,10b-dihydroxy-3,4a,7,7,10a-pentamethyl-1-oxo-3-vinyldodecahydro-1H-benzo[f]chromen-5-yl acetate]",exposure time after which no more signals of starting compound (m/z 807-811) can be detected; complete conversion assumed,[1],320 s
same,change in fluorescence relative to the values achieved by adding non-caged NKH 477,"[2]; 10 μM and 30 μM, after UV exposure",approximately 50%
same,Ca2+-dependent fluorescence emission after UV exposure (release of forskolin carbamate 10),"[2]; cells loaded with 10 μM and 30 μM for 30 min in the dark, UV lamp exposure",significant increase
